Source: patent US5550139A, “Serine protease inhibitors” (The Wichita State University, priority 1994, dated 1996)
Values belong to the compound of their own block, whether it stands above or below them.

Legend:
[1] = molecular target: T1, cathepsin G (Cath G) (Homo sapiens, UniProt P08311); assay: Inactivation of human leukocyte cathepsin G (kobs/[I]); assay type: biochemical; settings: for kinact/KI: pH 7.5
T1 construct: purchased Athens Research and Technology, Athens, Ga
T1 sequence (P08311 21-244 limits assumed): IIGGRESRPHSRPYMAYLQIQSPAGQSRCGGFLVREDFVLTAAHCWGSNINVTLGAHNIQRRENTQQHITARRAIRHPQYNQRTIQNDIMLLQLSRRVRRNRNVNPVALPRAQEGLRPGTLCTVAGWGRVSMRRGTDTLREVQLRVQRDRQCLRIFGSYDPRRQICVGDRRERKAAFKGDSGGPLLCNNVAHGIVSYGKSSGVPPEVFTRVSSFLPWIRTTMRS
Description: Human leukocyte cathepsin G (1.33 uM) is incubated with compound 8 (133 uM) (a) or compound 10 (13.3 uM) (b) in 0.1M HEPES buffer, pH 7.5, and 10% DMSO. Aliquots were withdrawn at different time intervals and assayed for enzymatic activity using methoxysuccinyl Ala-Ala-Pro-Phe p-nitroanilide.
Human leukocyte cathepsin G (1.48 μM was incubated with inhibitor 5A (1.48 μM in 0.1M HEPES buffer, pH 7.5, and 1% DMSO. Aliquots were withdrawn at different time intervals and assayed for enzymatic activity using methoxysuccinyl Ala-Ala-Pro-Phe p-nitroanilide.
(§1) An in vitro assay can be used to screen compounds of the invention for the ability to reduce or inhibit serine proteinase activity. The human leukocyte elastase (HLE), cathepsin G (Cath G), and proteinase-3 assays have each been described (Groutas et al., J. Med. Chem. 32:1607-1611, 1989; Groutas et al., Arch. Biochem. Biophys. 294:144-146, 1992; Kao et al., J. Clin. Invest. 82:1963-1973, 1988, each incorporated by reference herein). The pseudo first-order inactivation rate constants (kobs) were obtained from plots of ln(vt /vo) vs t, and expressed in terms of the apparent second-order inactivation rate constant, kobs /[I] M^-1 s^-1 (Tables 1-7). Tables 1-7 disclose the activity of preferred compounds of the invention as inhibitors of HLE and Cath G. Table 7 discloses the activity of Compounds 4A (C) and 3E (D) as inhibitors of Proteinase-3 activity. Compounds (A) and (B) have been disclosed previously (Groutas et al., Bioorganic and Med. Chem. 1(4):273-277, 1993; Groutas et al., J. Med. Chem. 36:3178, 1993).
(§2) Human leukocyte cathepsin G was obtained from Athens Research and Technology, Athens, Ga. Methoxysuccinyl Ala-Ala-Pro-Val p-nitroanilide and methoxysuccinyl Ala-Ala-Pro-Phe p-nitroanilide were purchased from Sigma Chemicals Co., St. Louis, Mo. Baker-analyzed 60-200 mesh silica gel was used for flash chromatography.

[2] = molecular target: T2, human leukocyte elastase (HLE) (Homo sapiens, UniProt P08246); assay: Inactivation of human leukocyte elastase (kobs/[I]); assay type: biochemical
T2 construct: purchased Elastin Products Co., Owensville, Mo
T2 sequence (P08246 30-247 limits assumed): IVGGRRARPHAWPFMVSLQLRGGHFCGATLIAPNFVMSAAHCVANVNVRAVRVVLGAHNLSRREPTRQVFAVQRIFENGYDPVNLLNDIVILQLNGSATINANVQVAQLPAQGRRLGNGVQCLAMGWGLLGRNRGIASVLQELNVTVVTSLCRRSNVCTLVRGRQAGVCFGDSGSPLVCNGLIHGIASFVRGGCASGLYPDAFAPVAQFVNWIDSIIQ
Source text: as §1
XII. Materials: Human leukocyte elastase was purchased from Elastin Products Co., Owensville, Mo.
as §2

SMILES: O=C(CS(=O)(=O)c1ccccc1)OCN1C(=O)C(Cc2ccccc2)CS1(=O)=O (stereo not shown) [Compound 5C]
kinact/KI ([1]; Table 4): 1050 M⁻¹ s⁻¹
kinact/KI ([2]; Table 4): 340 M⁻¹ s⁻¹

SMILES: Nc1ccc(O)c(C(=O)OCN2C(=O)C(Cc3ccccc3)CS2(=O)=O)c1 (stereo not shown) [Compound 5]
kinact/KI ([1]; Table 1A): 3330 M⁻¹ s⁻¹
kinact/KI ([2]; Table 1A): 470 M⁻¹ s⁻¹

SMILES: CC(C)(C)OC(=O)N1CCC[C@H]1C(=O)OCN1C(=O)C(Cc2ccccc2)CS1(=O)=O (stereo partly shown) [Compound 6B]
kinact/KI ([1]; Table 3): 590 M⁻¹ s⁻¹
kinact/KI ([2]; Table 3): 170 M⁻¹ s⁻¹

SMILES: O=C(/C=C\Sc1ccccc1)OCN1C(=O)C(Cc2ccccc2)CS1(=O)=O (stereo not shown) [Compound 6C]
kinact/KI ([1]; Table 4): 7270 M⁻¹ s⁻¹
kinact/KI ([2]; Table 4): 170 M⁻¹ s⁻¹

SMILES: O=C1C(Cc2ccccc2)CS(=O)(=O)N1C(CF)Sc1ccccc1 (stereo not shown) [Compound 7, 4-Benzyl-2-(2-fluoro-1-phenylthioethyl) isothiazolidin-3-one 1,1-dioxide]
kinact/KI ([1]; Table 1B): 40 M⁻¹ s⁻¹
HLE % inhibition ([2]; Table 1B footnote, [I]/[E] ratio of 200, 10 minute incubation period): 24%

SMILES: O=C(OCN1C(=O)C(Cc2ccccc2)CS1(=O)=O)[C@H]1CCCN1C(=O)OCc1ccccc1 (stereo partly shown) [Compound 7B]
kinact/KI ([1]; Table 3): 360 M⁻¹ s⁻¹
kinact/KI ([2]; Table 3): 520 M⁻¹ s⁻¹

SMILES: O=C(/C=C/Sc1ccccc1)OCN1C(=O)C(Cc2ccccc2)CS1(=O)=O (stereo not shown) [Compound 7C]
kinact/KI ([1]; Table 4): 5520 M⁻¹ s⁻¹
kinact/KI ([2]; Table 4): 240 M⁻¹ s⁻¹

SMILES: O=C1C(Cc2ccccc2)CS(=O)(=O)N1C(CF)S(=O)(=O)c1ccccc1 (stereo not shown) [Compound 8, 4-Benzyl-2-(2-fluoro-1-phenylsulfonylethyl) isothiazolidin-3-one 1,1-dioxide]
time-dependent loss of serine protease activity ([1]; FIG. 5, Cath G 1.33 uM, inhibitor 133 uM, 0.1M HEPES pH 7.5, 10% DMSO): time-dependent loss of serine protease activity
kinact/KI ([1]; Table 1B): 420 M⁻¹ s⁻¹
kinact/KI ([2]; Table 1B): 50 M⁻¹ s⁻¹

SMILES: C[C@H](NC(=O)OCc1ccccc1)C(=O)OCN1C(=O)C(Cc2ccccc2)CS1(=O)=O (stereo partly shown) [Compound 8B]
kinact/KI ([1]; Table 3): 2770 M⁻¹ s⁻¹
kinact/KI ([2]; Table 3): 50 M⁻¹ s⁻¹

SMILES: O=C(C=CS(=O)(=O)c1ccccc1)OCN1C(=O)C(Cc2ccccc2)CS1(=O)=O (stereo not shown) [Compound 8C]
kinact/KI ([1]; Table 4): 2770 M⁻¹ s⁻¹
kinact/KI ([2]; Table 4): 380 M⁻¹ s⁻¹

SMILES: O=C1[C@H](Cc2ccccc2)NS(=O)(=O)N1CCl [Compound 8E]
kinact/KI ([1]; Table 6): 30 M⁻¹ s⁻¹

SMILES: O=C1[C@H](Cc2ccccc2)NS(=O)(=O)N1CS(=O)(=O)c1ccccc1 [Compound 10E]
kinact/KI ([1]; Table 6): 30 M⁻¹ s⁻¹

SMILES: O=C1C(Cc2ccccc2)CS(=O)(=O)N1C[S+]([O-])c1ccccc1 (stereo not shown) [Compound 13D]
kinact/KI ([1]; Table 5): 590 M⁻¹ s⁻¹

SMILES: O=C1C(Cc2ccccc2)CS(=O)(=O)N1CS(=O)(=O)c1ccccc1 (stereo not shown) [Compound 14D]
Cath G kobs/[I] ([1]; Table 5): 960 M⁻¹ s⁻¹

SMILES: CS(=O)(=O)CN1C(=O)C(Cc2ccccc2)CS1(=O)=O (stereo not shown) [Compound 15D]
kinact/KI ([1]; Table 5): 2080 M⁻¹ s⁻¹

SMILES: O=C1[C@H](Cc2ccccc2)N(C/C=C/c2ccccc2)S(=O)(=O)N1CS(=O)(=O)c1ccccc1 [Compound 15E]
kinact/KI ([1]; Table 6): 760 M⁻¹ s⁻¹

The next lines start with the values.

kinact/KI ([2]; Table 6): 2020 M⁻¹ s⁻¹
SMILES: CC(C)C[C@H]1C(=O)N(CS(=O)(=O)c2ccccc2)S(=O)(=O)N1CC(=O)OC(C)(C)C [Compound 5E]

kinact/KI ([1]; Table 6): 130 M⁻¹ s⁻¹
SMILES: CN1[C@@H](Cc2ccccc2)C(=O)N(CS(=O)(=O)c2ccccc2)S1(=O)=O [Compound 11E]

kinact/KI ([1]; Table 6): 320 M⁻¹ s⁻¹
SMILES: CCCCN1[C@@H](Cc2ccccc2)C(=O)N(CS(=O)(=O)c2ccccc2)S1(=O)=O [Compound 12E]

kinact/KI ([1]; Table 6): 1130 M⁻¹ s⁻¹
SMILES: CC(C)(C)OC(=O)CN1[C@@H](Cc2ccccc2)C(=O)N(CS(=O)(=O)c2ccccc2)S1(=O)=O [Compound 14E]

kinact/KI ([2]; Table 6): 10600 M⁻¹ s⁻¹
SMILES: CCCCN1[C@@H](CC(C)C)C(=O)N(CS(=O)(=O)c2ccccc2)S1(=O)=O [Compound 16E]

kinact/KI ([1]; Table 6): 440 M⁻¹ s⁻¹
SMILES: CC(C)C[C@H]1C(=O)N(CS(=O)(=O)c2ccccc2)S(=O)(=O)N1Cc1ccccc1 [Compound 17E]

kinact/KI ([2]; Table 6): 4590 M⁻¹ s⁻¹
SMILES: CC(C)C[C@H]1C(=O)N(CS(C)(=O)=O)S(=O)(=O)N1C [Compound 18E]
